Nine molecules from ChEMBL document CHEMBL1743341, “Cytochrome p450 enzymes mechanism based inhibitors: common sub-structures and reactivity” (Curr Drug Metab, 2005) can be followed below.

Series [1] has as its target T1, Cytochrome P450 2E1 (Homo sapiens, UniProt P05181). The experiment in a line: (§1) Mechanism based inhibition of human cytochrome P450 2E1. Type of series: ADME.
The next series deals with CYP2E1 (Homo sapiens, UniProt P05181). Described as §1. In kind it is ADME. Conditions: human.
In a further series the target is T2, Cytochrome P450 2B1 (Rattus norvegicus, UniProt P00176).
T2 sequence (P00176 whole entry): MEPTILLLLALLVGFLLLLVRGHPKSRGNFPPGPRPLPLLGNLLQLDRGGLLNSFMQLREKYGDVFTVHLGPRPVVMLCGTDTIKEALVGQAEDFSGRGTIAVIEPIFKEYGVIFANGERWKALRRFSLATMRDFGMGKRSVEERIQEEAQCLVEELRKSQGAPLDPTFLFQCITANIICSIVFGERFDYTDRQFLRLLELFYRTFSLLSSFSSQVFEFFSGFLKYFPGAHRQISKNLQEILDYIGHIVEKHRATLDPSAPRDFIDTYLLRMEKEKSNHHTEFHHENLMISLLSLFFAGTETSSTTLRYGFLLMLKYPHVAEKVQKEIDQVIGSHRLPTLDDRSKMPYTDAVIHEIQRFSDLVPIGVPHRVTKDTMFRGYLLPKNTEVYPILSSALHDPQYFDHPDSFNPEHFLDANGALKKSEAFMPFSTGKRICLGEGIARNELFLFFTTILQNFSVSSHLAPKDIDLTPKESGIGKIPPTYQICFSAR
Briefly: Mechanism based inhibition of rat cytochrome P450 CYP2B1 measured by 7-EFC O-deethylation activity. Type of series: ADME. The following applies: rat.

Series [2] deals with T3, CYP3A4 (Homo sapiens, UniProt P08684). The experiment in a line: (§2) Mechanism based inhibition of human cytochrome P450 3A4 measured by N-demethylation of erythromycin. Type of series: ADME. Conditions: human, probe erythromycin (N-demethylation).
Series [3] has as its target T4, Cytochrome P450 3A4 (Homo sapiens, UniProt P08684). Described as §2. Type of series: ADME.
The target of series [4] is T1, Cytochrome P450 2E1. The experiment in a line: Mechanism based inhibition of human cytochrome P450 2E1 measured by chlorzoxazone 6-hydroxylase activity. Type of series: ADME.
In series [5] the target is T4, Cytochrome P450 3A4. The experiment in a line: Mechanism based inhibition of human cytochrome P450 3A4 measured by testosterone 6-beta hydroxylation. Type of series: ADME.
Series [6] deals with T5, Cytochrome P450 2C9 (Homo sapiens, UniProt P11712). The experiment in a line: Mechanism based inhibition of human cytochrome P450 2C9 measured by Tolbutamide methyl hydroxylation. In kind it is ADME.
A further series deals with T6, Cytochrome P450 1A2 (Homo sapiens, UniProt P05177).
T6 sequence (P05177 whole entry): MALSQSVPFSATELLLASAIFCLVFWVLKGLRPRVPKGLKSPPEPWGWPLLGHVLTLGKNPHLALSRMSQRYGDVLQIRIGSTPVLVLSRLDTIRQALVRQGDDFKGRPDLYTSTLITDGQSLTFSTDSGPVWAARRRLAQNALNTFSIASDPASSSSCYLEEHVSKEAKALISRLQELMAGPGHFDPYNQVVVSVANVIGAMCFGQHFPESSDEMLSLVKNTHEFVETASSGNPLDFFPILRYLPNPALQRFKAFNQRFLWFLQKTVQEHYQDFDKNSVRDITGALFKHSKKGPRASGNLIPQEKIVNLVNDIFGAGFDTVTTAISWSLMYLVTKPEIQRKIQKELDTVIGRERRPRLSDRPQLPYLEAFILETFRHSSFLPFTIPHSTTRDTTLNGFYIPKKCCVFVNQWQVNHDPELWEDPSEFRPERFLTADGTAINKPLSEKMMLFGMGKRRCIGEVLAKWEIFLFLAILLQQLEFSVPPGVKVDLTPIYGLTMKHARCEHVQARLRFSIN
Briefly: Mechanism based inhibition of human cytochrome P450 1A2 measured by 7-ethoxyresorufin O-deethylation (EROD). Type of series: ADME.

Series [7] has as its target T5, Cytochrome P450 2C9. Briefly: Mechanism based inhibition of human cytochrome P450 2C9 measured by 7-EFC O-deethylation. In kind it is ADME.
In series [8] the target is T3, CYP3A4. Briefly: Mechanism based inhibition of human cytochrome P450 3A4 measured by triazolam 4- hydroxylation using human liver microsomes. In kind it is ADME, Microsome. The following applies: probe triazolam (4-hydroxylation). (Liver microsomes are vesicles of endoplasmic reticulum, rich in cytochrome P450 enzymes.)
The target of series [9] is T3, CYP3A4. The experiment in a line: Mechanism based inhibition of human cytochrome P450 3A4 measured by triazolam 4- hydroxylation using recombinant CYP3A4. The following applies: recombinant CYP3A4, probe triazolam (4-hydroxylation). In kind it is ADME.
For series [10], the target named is T3, CYP3A4. Briefly: Mechanism based inhibition of human cytochrome P450 3A4 measured by triazolam alpha- hydroxylation using human liver microsomes. Type of series: ADME, Microsome. The following applies: probe triazolam (alpha-hydroxylation).
Series [11] concerns the target T3, CYP3A4. Briefly: Mechanism based inhibition of human cytochrome P450 3A4 measured by triazolam alpha- hydroxylation using recombinant CYP3A4. Type of series: ADME. Conditions: recombinant CYP3A4, probe triazolam (alpha-hydroxylation).
Series [12] concerns the target T7, Cytochrome P450 2C8 (Homo sapiens, UniProt P10632).
T7 sequence (P10632 whole entry): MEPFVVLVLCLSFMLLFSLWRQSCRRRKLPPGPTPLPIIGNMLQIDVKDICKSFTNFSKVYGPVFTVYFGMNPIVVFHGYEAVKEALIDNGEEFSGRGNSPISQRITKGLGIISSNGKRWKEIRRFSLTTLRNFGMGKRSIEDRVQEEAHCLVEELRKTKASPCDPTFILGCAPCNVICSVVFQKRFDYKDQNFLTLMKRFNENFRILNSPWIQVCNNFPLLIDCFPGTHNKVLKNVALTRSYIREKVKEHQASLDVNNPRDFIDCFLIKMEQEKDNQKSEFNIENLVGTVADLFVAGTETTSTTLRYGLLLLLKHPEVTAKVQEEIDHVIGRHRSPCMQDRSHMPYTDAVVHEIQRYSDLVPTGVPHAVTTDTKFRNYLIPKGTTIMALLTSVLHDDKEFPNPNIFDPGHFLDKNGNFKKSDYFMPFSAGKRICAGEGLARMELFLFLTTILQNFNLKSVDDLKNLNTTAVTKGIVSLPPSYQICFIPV
Description: (§6) Mechanism based inhibition of human cytochrome P450 2C8 measured by paclitaxel hydroxylation using human liver microsomes

Series [13] addresses T7, Cytochrome P450 2C8. The source holds these as a separate data set.
Description: (§7) Mechanism based inhibition of human cytochrome P450 2C8 measured by paclitaxel hydroxylation using a recombinant system
For series [14], the target named is T8, CYP2C8 (Homo sapiens, UniProt P10632).
T8 sequence (P10632 whole entry): T7 sequence (P10632 whole entry)
Briefly: in vitro. Conditions: human liver microsomes, probe paclitaxel.
Description: as §6

Series [15] addresses T8, CYP2C8. Briefly: in vitro. The following applies: recombinant CYP2C8, probe paclitaxel.
Description: as §7
Series [16] concerns the target T9, CYP2D6 (Homo sapiens, UniProt P10635). The experiment in a line: (§3) Mechanism based inhibition of human cytochrome P450 2D6 measured by dextromethorphan O-demethylation using recombinant CYP2D6. In kind it is ADME. The following applies: human, recombinant CYP2D6, probe dextromethorphan.
Series [17] addresses T10, Cytochrome P450 2D6 (Homo sapiens, UniProt P10635). The description is as §3. Type of series: ADME.
Series [18] deals with T9, CYP2D6. Briefly: (§4) Mechanism based inhibition of human cytochrome P450 2D6 measured by dextromethorphan O-demethylation using human liver microsomes. Type of series: ADME, Microsome. The following applies: human, human liver microsomes, probe dextromethorphan.
Series [19] has as its target T10, Cytochrome P450 2D6. Described as §4. In kind it is ADME, Microsome.
Series [20] has as its target T3, CYP3A4. Briefly: (§5) Mechanism based inhibition of human cytochrome P450 3A4 measured by DBF fluorescence. Type of series: ADME. Conditions: human, probe DBF.
The target in series [21] is T4, Cytochrome P450 3A4. The series is described as §5. Type of series: ADME.
The target of series [22] is T4, Cytochrome P450 3A4. Briefly: Mechanism based inhibition of human cytochrome P450 3A4, partition ratio. Type of series: ADME.

T3 sequence (P08684 whole entry): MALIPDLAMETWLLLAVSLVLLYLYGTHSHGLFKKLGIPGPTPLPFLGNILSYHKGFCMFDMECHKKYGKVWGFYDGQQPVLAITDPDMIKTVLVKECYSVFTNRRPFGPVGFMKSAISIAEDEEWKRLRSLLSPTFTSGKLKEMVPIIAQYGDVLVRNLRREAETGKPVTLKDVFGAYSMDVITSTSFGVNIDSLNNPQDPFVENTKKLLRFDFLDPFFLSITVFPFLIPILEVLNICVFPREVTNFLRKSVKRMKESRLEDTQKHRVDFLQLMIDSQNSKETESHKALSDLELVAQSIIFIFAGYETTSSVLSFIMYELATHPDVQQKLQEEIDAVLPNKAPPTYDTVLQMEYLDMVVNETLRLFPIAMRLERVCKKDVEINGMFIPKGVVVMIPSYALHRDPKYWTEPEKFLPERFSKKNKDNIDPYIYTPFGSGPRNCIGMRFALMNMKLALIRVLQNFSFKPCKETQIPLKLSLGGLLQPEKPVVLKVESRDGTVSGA
T4 sequence (P08684 whole entry): as above
T9 sequence (P10635 whole entry): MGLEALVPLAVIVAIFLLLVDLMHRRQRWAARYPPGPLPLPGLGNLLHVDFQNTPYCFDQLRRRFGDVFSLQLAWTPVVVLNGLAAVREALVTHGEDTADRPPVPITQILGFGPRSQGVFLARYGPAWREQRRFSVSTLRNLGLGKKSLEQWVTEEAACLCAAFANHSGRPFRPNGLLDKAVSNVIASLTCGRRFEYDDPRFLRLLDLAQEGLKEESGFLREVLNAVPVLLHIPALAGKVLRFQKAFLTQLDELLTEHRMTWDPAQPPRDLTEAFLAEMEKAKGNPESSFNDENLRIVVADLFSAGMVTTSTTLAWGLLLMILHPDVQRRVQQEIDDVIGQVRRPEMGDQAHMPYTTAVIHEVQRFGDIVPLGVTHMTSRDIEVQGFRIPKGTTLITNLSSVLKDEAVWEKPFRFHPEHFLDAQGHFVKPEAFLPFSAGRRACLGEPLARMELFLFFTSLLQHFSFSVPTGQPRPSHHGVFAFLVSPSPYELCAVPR
T10 sequence (P10635 whole entry): as above
T1 sequence (P05181 whole entry): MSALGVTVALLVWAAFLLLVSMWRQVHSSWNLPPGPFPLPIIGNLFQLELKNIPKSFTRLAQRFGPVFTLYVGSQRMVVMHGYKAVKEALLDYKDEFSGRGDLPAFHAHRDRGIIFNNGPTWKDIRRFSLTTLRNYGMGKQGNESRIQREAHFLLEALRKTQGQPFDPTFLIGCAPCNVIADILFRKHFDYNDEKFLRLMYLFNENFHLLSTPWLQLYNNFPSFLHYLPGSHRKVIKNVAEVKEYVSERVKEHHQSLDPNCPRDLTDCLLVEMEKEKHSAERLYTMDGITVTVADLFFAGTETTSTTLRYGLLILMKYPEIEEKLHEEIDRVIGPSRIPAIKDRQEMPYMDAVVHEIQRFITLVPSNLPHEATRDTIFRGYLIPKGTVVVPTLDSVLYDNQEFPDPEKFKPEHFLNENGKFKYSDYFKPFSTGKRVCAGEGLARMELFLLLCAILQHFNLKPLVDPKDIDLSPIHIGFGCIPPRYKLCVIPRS
T5 sequence (P11712 whole entry): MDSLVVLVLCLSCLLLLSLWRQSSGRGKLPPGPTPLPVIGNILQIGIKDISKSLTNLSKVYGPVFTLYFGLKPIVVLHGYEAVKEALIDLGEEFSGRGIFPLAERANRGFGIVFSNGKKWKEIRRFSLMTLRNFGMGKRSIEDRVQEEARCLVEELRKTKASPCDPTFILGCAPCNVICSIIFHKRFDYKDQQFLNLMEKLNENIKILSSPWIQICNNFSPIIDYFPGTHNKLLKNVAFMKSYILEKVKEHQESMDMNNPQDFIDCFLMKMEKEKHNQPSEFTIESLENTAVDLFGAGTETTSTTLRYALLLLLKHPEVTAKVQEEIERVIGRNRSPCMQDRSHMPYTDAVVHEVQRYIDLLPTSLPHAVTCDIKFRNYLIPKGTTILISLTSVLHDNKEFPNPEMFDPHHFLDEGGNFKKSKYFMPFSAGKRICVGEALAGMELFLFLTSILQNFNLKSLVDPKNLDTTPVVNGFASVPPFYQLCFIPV
Sequence of CYP2E1 (P05181 whole entry): as the sequence (P05181 whole entry) above

Usually kinact stands for the rate constant of inactivation at saturating inhibitor. The molecule `S=C=NCCc1ccccc1` [PHENETHYLISOTHIOCYANATE] registered a Ki at Cytochrome P450 2E1 [1] of 9.98 µM. Besides, the kinact on CYP2E1 is 0.00565 s⁻¹. Also, the mechanism based inhibition entry at Cytochrome P450 2B1 is reported as “Cytochrome P450 mechanistic inhibitor: PMID 11454729”.

On to `COc1cc2c(c(OC)c1OC)-c1c(cc3c(c1OC)OCO3)C[C@H](C)[C@](C)(O)[C@H]2OC(=O)c1ccccc1` [GOMISIN C], for which the kinact on CYP3A4 [2] was 0.00153 s⁻¹. This molecule gave a Ki on Cytochrome P450 3A4 [3] of 0.399 µM.

Turning to `FC(F)(F)C(Cl)Br` (stereo unspecified) [HALOTHANE], the mechanism based inhibition entry at Cytochrome P450 2E1 [4] is listed as “Cytochrome P450 mechanistic inhibitor: PMID 8902272”.

For the molecule `CCOP(=S)(OCC)Oc1ccc([N+](=O)[O-])cc1` [PARATHION], the mechanism based inhibition result on Cytochrome P450 3A4 [5], on Cytochrome P450 2C9 [6] and at Cytochrome P450 1A2 was “Cytochrome P450 mechanistic inhibitor: PMID 9023313” throughout.

Consider `COc1cc(C2Oc3cc([C@H]4Oc5cc(O)cc(O)c5C(=O)[C@@H]4O)ccc3OC2CO)ccc1O` (stereo partly specified) [SILIBININ], for which the Ki on Cytochrome P450 2C9 [7] amounted to 5 µM.

With `CC[C@H]1OC(=O)[C@H](C)[C@@H](O[C@H]2C[C@@](C)(OC)[C@@H](O)[C@H](C)O2)[C@H](C)[C@@H](O[C@@H]2O[C@H](C)C[C@H](N(C)C)[C@H]2O)[C@](C)(O)C[C@@H](C)C(=O)[C@H](C)[C@@H](O)[C@]1(C)O` [ERYTHROMYCIN], the kinact on CYP3A4 [8] was 0.000917 s⁻¹; at CYP3A4 [9] it was 0.00162 s⁻¹; at CYP3A4 [10], 0.00103 s⁻¹; at CYP3A4 [11] it was 0.00288 s⁻¹. Besides, the mechanism based inhibition entry on Cytochrome P450 3A4 [5] is “Cytochrome P450 mechanistic inhibitor: PMID 9806945”.

As for `NNCCc1ccccc1` [PHENELZINE], the results for the Ki at Cytochrome P450 2C8 [12] and on Cytochrome P450 2C8 [13] were 54.3 µM and 1.2 µM, respectively. The kinact was 0.00283 s⁻¹ at CYP2C8 [14] and 0.00405 s⁻¹ at CYP2C8 [15].

`CNC(C)Cc1ccc2c(c1)OCO2` (stereo unspecified) [MIDOMAFETAMINE]: the kinact is 0.00483 s⁻¹ at CYP2D6 [16] and 0.00283 s⁻¹ at CYP2D6 [18]. In addition, the results for the Ki on Cytochrome P450 2D6 [17] and on Cytochrome P450 2D6 [19] were 12.9 µM and 22.8 µM, respectively.

For `CC(O)CCC(=O)c1ccoc1` (stereo unspecified), on CYP3A4 [20], the kinact is 0.0025 s⁻¹. On Cytochrome P450 3A4 [21], this molecule yielded a Ki of 20 µM. The Partition ratio on Cytochrome P450 3A4 [22] amounted to 257.
